US6730665B1, “Treatment of bone cancer” (Mayo Foundation for Medical Education and Research, priority 1999, dated 2004)
“Also recorded” adds a separate entry of the source.

Columns and labels:
[1] = system: MG63 osteosarcoma cells; assay: In situ apoptosis by TUNEL assay; type: cell-based, human; conditions: 10 μM, 48 h
Procedure: The effect of 2ME on in situ apoptosis was examined at the single cell level, based on labeling of DNA strand breaks using the TUNEL (terminal deoxynucleotidyl transferase-mediated dUTP nick end labeling) assay per manufacturer's protocol (Boehringer Mannheim, Indianapolis, Ind.). In this method, the ends of broken DNA strands were labeled with fluorescein-dUTP, and apoptotic cells in adherent cultures were detected by fluorescence microscopy. In brief, TUNEL assay was performed on coverslips of adherent cells contained in individual wells of a 24-well culture dish. Cells were washed once with phosphate buffered saline (PBS) and allowed to air dry before being fixed in 4% phosphate-buffered paraformaldehyde pH 7.4 (Sigma, St. Louis, Mo.) for 1 h at room temperature. Following a PBS rinse, endogenous peroxidase was blocked by incubating cells for 1 h at room temperature with 0.3% hydrogen peroxide in methanol (Sigmna). The latter was performed for the option of converting fluorescein-labeled cells to peroxidase-labeled cells and DAB chromogenic detection. Subsequent to a PBS rinse, cells were permeabilized on ice with incubation in 0.1% Triton X-100 in 0.1% sodium citrate for 2 min. Coverslips were rinsed twice in PBS before the addition of TUNEL reaction mixture (100 μl). […] Coverslips were rinsed 3 times with PBS before visualization by fluorescence microscopy. […]

[2] = system: hFOB cells overexpressing estrogen receptor-alpha (hFOB-ERα); assay: Cell survival, viable cell count with trypan blue; type: cell-based, human; conditions: 2 μM, 72 h
Procedure: MG63 and TE85 human osteosarcoma cells, and ROS 17/2.8 rat osteosarcoma cells were grown in DMEM/F12 phenol-red free medium containing 10% charcoal-stripped fetal bovine serum (FBS) and supplemented with 100 units/ml penicillin, 100 μg/ml streptomycin. Cell were incubated at 37° C. under 5% CO2 in air. Cells were plated at 5×10^4 cells per well into 24 well plates containing 1 ml of medium per well. After allowing the cells to attach overnight, media in the wells were replaced with fresh 1 ml medium. Human fetal osteoblasts (hFOB) cells and hFOB cells overexpressing estrogen receptor-alpha (hFOB-ERα) and estrogen receptor-beta (hFOB-ERβ) were grown in DMEM/F12 medium containing FBS, penicillin, streptomycin and Geneticin (300 μg/mL). The laboratory of Dr. B. L. Riggs at Mayo Clinic provided primary human osteoblast (HOB) cells. HOB cells were basically established from cancellous bone obtained as waste from orthopedic procedures and cultured as explants to generate the osteoblast-like monolayers as described by Borke et al., J. Clin. Endocrinol. Metab., 1988, 67:1299-1304. […]
Estrogen metabolites were diluted 1000 fold to give the final required concentrations in each well, and maintained for 72 hrs. […] Cell growth was measured by taking the viable cell count. At the end of metabolite treatment, cells were harvested, stained with trypan blue, and counted under a light microscope.

[3] = Serum cholesterol in 2ME treated rats; type: in vivo, rat; conditions: 100 mg/kg/day oral gavage 13 days
[4] = system: MG63 cells; assay: Cytokine and growth factor mRNA levels by RNase protection assay; type: cell-based, human; conditions: 10 μM
Procedure: Changes in steady state mRNA levels for cytokines implicated in the regulation of bone formation and resorption were measured using RNase Protection assays. For RNA isolation and RNase protection assays, MG63 cells were plated at 10^6 cells per T75 culture flask a day prior to metabolite treatment. The next day, the medium was removed and replaced with fresh medium containing 10 μM concentrations of 2ME and incubated for 12, 24, 48, and 72 hours. Cells were harvested and cell pellets were used for RNA isolation. Total cellular RNA was extracted and isolated using a modified organic solvent method and the RNA yields were determined spectrohotometrically at 260 nm. Total cellular RNA was analyzed by RNase protection assays using antisense RNA probes for transforming growth factor-beta (TGF-β), tumor necrosis factor (TNF) α and β, interleukin (IL) 1α, 1β, 1Ra, 6, 10, 12 (p35 and p40), interferon (IFN) β and γ, and lymphotoxin (LT) β. Quantitation of protected RNA fragments was performed by PhosphorImager analyses and normalized to ribosomal structural protein L32 or glyceraldehyde 3-phosphate dehydrogenase levels. Results are presented in FIG. 8 and Table 4, and are representative of 3 independent treatments.

[5] = system: MG63 cells; assay: Apoptotic gene mRNA levels by RNase protection assay; type: cell-based, human; conditions: 10 μM
Procedure: The changes in expression of the genes that are known to antagonize or promote apoptosis were analyzed by this method. MG63 cells in triplicate cultures were treated with 10 μM 2ME. Cells were harvested at the end of 12, 24, 48 and 72 h of treatment and used for RNA isolation. Total RNA isolated from cells was analyzed by RNase protection assay using apoptosis template set for multiprobes (Pharmingen; San Diego, Calif.). Quantitation of protected RNA fragments was performed by Phosphor Imager analyses and normalized to L32 or GAP levels. The mRNA for the proapoptotic gene bak and bax were increased by 2ME treatment in MG63 cells (FIG. 7). The increase was significant within 12 h of treatment and reached a maximum (2 fold for bak; 2.5 fold for bax) at 48 h, at which time cell death by apoptosis was detected by in situ TUNEL assay.

[6] = system: female Fisher 344 rats; assay: Growth plate histomorphometry and longitudinal bone growth rate in rats; type: in vivo, rat; conditions: 100 mg/kg/day oral gavage 13 days
Procedure: All studies were approved by the Institutional Animal Care and Use Committee of the Mayo Clinic, Rochester, Minn. Rats were kept in plastic cages (3 per cage) under standard conditions of a 12 hr dark and 12 hr light cycle with food (Purina Laboratory rodent diet 5001, Ralston-Purina, St. Louis, Mo.) and water ad libitum. Rooms were maintained at a temperature of 24° C.
Twenty-five female 3-month-old Fisher 344 rats, weighing approximately 141-160 g, were purchased from Harlan Sprague Dawley (Madison, Wis.). The rats were divided into 3 groups (8 or 9 rats/group) of a baseline group that was sacrificed on the first day of treatment, a control group that was treated with carrier (liposomes) only, and a 2ME treatment group. […] Fluorochromes were given juxta tail vein. Declomycin (20 mg/kg) was given on the first day of treatment and calcein (15 mg/kg) two days prior to sacrifice, in order to label mineralizing bone and cartilage. Twenty-four hours after the last dosage, rats were anesthetized with ketamine HCl (100 mg/kg):xylaxine HCl (10 mg/kg) and sacrificed by decapitation. […] Tibiae were quickly excised and fixed for histomorphometry in a solution of 70% ethanol.
Bone histomorphometry Histomorphometric measurements were performed with the OsteoMeasure Analysis System (OsteoMetrics, Atlanta, Ga.), which consisted of a Pentium 1133 computer coupled to a photomicroscope and image analysis system. […] The region of interest was traced, and the line lengths and area bounded by lines were calculated automatically.
Growth Plate Measurements The longitudinal bone growth rate was measured at 5 equally spaced sites across the growth plate as the distance between the declomycin and calcein labels that had been deposited into the mineralizing front of the hypertrophic zone of the growth plate divided by the 11 day interval between application of the sequential fluorochromes.
Growth plate thickness was measured as the mean distance between the zone of vascular invasion and the resting zone. Thicknesses of the proliferative zone and hypertrophic zone were also measured.
Statistical Analvses All values are expressed as mean±standard error (SE). Significant differences between groups were determined by Fisher's Protected Least Significant Difference post hoc test for multiple group comparisons following detection of significance by 1-way ANOVA. Significance was considered at p values ≦0.05.

## COc1cc2c(cc1O)CC[C@@H]1[C@@H]2CC[C@]2(C)[C@@H](O)CC[C@@H]12 [2ME, 2-methoxyestradiol]
[1]
  TUNEL staining: Positive staining
[2]
  cell numbers reduced to: 24%
[3]
  effect on serum cholesterol (in words): decreased; also recorded: highly significant decreases
[4]
  increase of TGF-β1 mRNA level: 177%
  increase of TGF-β2 mRNA level: 289%
  increase of TGF-β3 mRNA level: 178%
[4]; 12-72 hours
  IFN-β mRNA: Increased
  IFN-γ mRNA: Not detected
  IL-1 Ra mRNA: Not detected
  IL-1α mRNA: Not detected
  IL-1β mRNA: Not detected
  IL-6 mRNA: Not detected
  IL-10 mRNA: Not detected
  IL-12 p35 mRNA: Not detected
  IL-12 p40 mRNA: Not detected
  LT-β mRNA: Not detected
  TGF-β1 mRNA: Increased
  TGF-β2 mRNA: Increased
  TGF-β3 mRNA: Increased
  TNF-α mRNA: Not detected
  TNF-β mRNA: Not detected
[4]; by 48 h
  maximum increase of interferon-β mRNA level: 2100%
[4]; within 12 h
  increase of interferon-β mRNA level: 500%
[5]; 48 h
  maximum increase of bak mRNA: 2 fold
  maximum increase of bax mRNA: 2.5 fold
[5]; 72 h
  mRNA levels for bak and bax (in words): returned to basal level
[6]; mean ± SE, control 42 ± 5
  Proliferative zone thickness: 11 ± 3 μm
[6]; mean ± SE, control 46 ± 6
  Hypertrophic zone thickness: 6 ± 2 μm
[6]; mean ± SE, control 153 ± 14
  Growth plate thickness: 70±6 μm
[6]; proximal tibia, 100 mg/kg/day
  effect on longitudinal bone growth (in words): decreased; also recorded: highly significant decreases
[6]; proximal tibia, control 55±2
  longitudinal bone growth rate: 20±2 μm/day
